{"source": "patent US20220264924A1", "about": "“METHODS AND COMPOSITIONS FOR IMPROVED TASTE QUALITY” (ALMENDRA PTE LTD, priority 2019, published 2022)", "key": {"[1]": {"test_system": "human subject (sensory testing)", "settings": "cited from earlier work; for sweetness potency, times higher than sucrose: relative to sucrose (Tanaka 1987; Phillips 1989); for sweetness potency, times more potent than sucrose: sensory evaluations, relative to sucrose (Crammer and Ikan 1986)"}, "[2]": {"test_system": "human subject (sensory testing)", "assay": "Sensory test: taste modulator effect on umami taste of MSG (Example 2)", "format": "in vivo", "settings": "0-15 scale; average of three trials; MSG 12 mM", "protocol": "(§1) Representative formulations within the scope of the disclosed formulations were prepared and subjected to sensory testing by the methods described above in the section entitled Testing Methodology, where formulations were rated on a 0-15 scales for the Taste Attributes: Umami Intensity (UI), Saltiness Intensity (SaI), Sourness Intensity (SoI), Bitterness Intensity (BI), Astringency Intensity (AI), and Mouthfeel Intensity (MF). In sensory test sessions, the number of samples evaluated was limited to four. In the initial phase of formulation screening, testing was carried out in triplicate with a single subject extensively experienced in the technique of flavor profile analysis.\n(§2) This study assessed the effect of a disclosed taste modulation formulation on umami taste and other sensory perceptions as described above for the test method, i.e., Umami Intensity (UI), Sourness Intensity (SoI), Saltiness Intensity (SaI), Bitterness Intensity (BI), Mouthfeel Intensity (MF) and Astringency Intensity (AI).\n(§3) The sensory protocol was as follows: • 1. Scramble ambient temperature samples so that each test solution is an unknown sample for sensory testing. • 2. Rinse mouth with 15 mL water while swishing vigorously followed by expectoration. • 3. Take 15 mL of the sample into the mouth and swish around vigorously for 15 sec scaling Umami Intensity (U), Sourness Intensity (So), Saltiness Intensity (Sa), Bitterness Intensity (B), Mouthfeel Intensity (MF) and Astringency Intensity (A) on 0-15 scales during this period and recording them in a table. • 4. Expectorate sample, rinse mouth vigorously with 15 mL water and expectorate at 15 sec. • 5. Note any change in sensory perceptions over the next 2 min and record observations in a table. • 6. Rinse mouth with 15 mL water with vigorous agitation in the mouth for 15 sec and expectorate. • 7. Wait a minimum of 15 min and repeat with next sample. • 8. Break sample code to identify samples.\nBriefly, a stock solution of 10 mM KCl (746 mg/L)/3 mM MgCl2.6H2O (610 mg/L)/3 mM CaCl2 (333 mg/L) in 1.00 L water was prepared in a 1 L E-flask, stirring to full dissolution. 100 mL portions of the mineral salt solution were then transferred to two 250 mL plastic-capped glass bottles and 100 mL portions of water were added to the other two 250 mL plastic-capped glass bottles. Sample completion was carried out by addition of MSG as follows for Sample Nos. 1-4.\nThree independent trials were carried out and the data are summarized below in Table 1, with individual results from each trial and average of the three trials as indicated."}, "[3]": {"test_system": "human subject (sensory testing)", "assay": "Sensory test: taste modulator effect on mouthfeel with MSG, varied MgCl2/CaCl2 (Example 4)", "format": "in vivo", "settings": "0-15 scale, 12 mM MSG Stock Solution", "protocol": "as §1, §3\nas §2, with “effects” for “effect”\nThe sensory protocol was as described above in Example 2.\nBriefly, a MSG Stock Solution of 12 mM MSG ([…]) was prepared and 100 mL portions of it were added to four 250 mL plastic-capped glass bottles. Sample preparation was completed as follows:\nEight independent trials were carried out and the average results are summarized below in Table 3."}, "[4]": {"test_system": "human subject (sensory testing)", "assay": "Sweetness Linger of standards in the sensory testing methodology", "format": "in vivo", "settings": "perceived sweetness intensity @ 120 sec; standards in water: 10% Sucrose, 500 PPM REBA", "source_text": "In various aspects, the present disclosure pertains to methods of testing the disclosed sweetener compositions, e.g., a sensory methodology or method for sweetener evaluation. In a particular aspect, the sensory methodology used is known as a “Flavor Profile Analysis” as has been previously described (see: B. T. Carr, S. D. Pecore, K. M. Gibes and G. E. DuBois, “Sensory Methods for Sweetener Evaluation”, Chapter 11 In Flavor Measurement, C. T. Ho and C. H. Manley, Eds., Marcel Dekker, New York, N.Y., 1993). The full set of sensory parameters that are assessed in the sensory testing method are: (a) Sweetness Intensity (which can be abbreviated in tables herein as “S”); (b) Sourness Intensity ((which can be abbreviated in tables herein as “So”); (c) Saltiness Intensity (which can be abbreviated in tables herein as “Sa”); (d) Bitterness Intensity (which can be abbreviated in tables herein as “B”); (e) Body/Mouthfeel Intensity (which can be abbreviated in tables herein as “B/MF”); (f) Astringency Intensity (which can be abbreviated in tables herein as “A”); (g) Sweetness Linger (which can be abbreviated in tables herein as “SL”); (h) Sweetness Appearance Time (which can be abbreviated in tables herein as “AT”); and (i) Sweetness Desensitization (which can be abbreviated in tables herein as “SD”). […]"}, "[5]": {"test_system": "human subject (sensory testing)", "settings": "R in Sucrose Equivalents of Sweetness; C in % (w/v); linear fit; cited from earlier work"}, "[6]": {"settings": "water (Kinghorn 2002); cited from earlier work"}}, "note": "Where “and” joins values, the source holds several entries; their conditions need not be identical. Identical values can stand only once.", "data": [{"molecule": "C=C1C[C@@]23CC[C@H]4[C@@](C)(CCC[C@@]4(C)C(=O)O[C@@H]4O[C@H](CO)[C@@H](O)[C@H](O)[C@H]4O)[C@@H]2CC[C@]1(O[C@@H]1O[C@H](CO)[C@@H](O)[C@H](O)[C@H]1O[C@@H]1O[C@@H](C)[C@H](O)[C@@H](O)[C@H]1O)C3", "note": "[Dulcoside A]", "values": [{"measurement": "sweetness potency, times higher than sucrose", "setting": "[1]", "value": 30, "unit": "times"}]}, {"molecule": "N[C@@H](CCC(=O)[O-])C(=O)O.O.[Na+]", "note": "[MSG Control 1, MSG-H2O]", "values": [{"measurement": "AI (Astringency Intensity) Ave", "setting": "[2]", "value": 0.0}, {"measurement": "BI (Bitterness Intensity) Ave", "setting": "[2]", "value": 3.0}, {"measurement": "MF (Mouthfeel Intensity) Ave", "setting": "[2]", "value": 3.3}, {"measurement": "Sal (Saltiness Intensity) Ave", "setting": "[2]", "value": 2.0}, {"measurement": "Sol (Sourness Intensity) Ave", "setting": "[2]", "value": 0.0}, {"measurement": "UI (Umami Intensity) Ave", "setting": "[2]", "value": 4.7}, {"measurement": "AI (Astringency Intensity)", "setting": "[3]; average of eight trials", "value": 0.0}, {"measurement": "BI (Bitterness Intensity)", "setting": "[3]; average of eight trials", "value": 0.0}, {"measurement": "MF (Mouthfeel Intensity)", "setting": "[3]; average of eight trials", "value": 1.5}, {"measurement": "Sal (Saltiness Intensity)", "setting": "[3]; average of eight trials", "value": 2.0}, {"measurement": "Sol (Sourness Intensity)", "setting": "[3]; average of eight trials", "value": 0.0}, {"measurement": "UI (Umami Intensity)", "setting": "[3]; average of eight trials", "value": 5.0}, {"measurement": "MF rating, Mean", "setting": "[3]; mean of eight trials", "value": 1.50}, {"measurement": "MF rating, individual trials", "setting": "[3]; trials 1-8", "value": "1 (4×) and 2 (4×)"}]}, {"molecule": "N[C@@H](CCC(=O)[O-])C(=O)O.O.[Na+]", "note": "[MSG Control 2, MSG-H2O]", "values": [{"measurement": "AI (Astringency Intensity) Ave", "setting": "[2]", "value": 0.0}, {"measurement": "BI (Bitterness Intensity) Ave", "setting": "[2]", "value": 3.0}, {"measurement": "MF (Mouthfeel Intensity) Ave", "setting": "[2]", "value": 3.0}, {"measurement": "Sal (Saltiness Intensity) Ave", "setting": "[2]", "value": 2.0}, {"measurement": "Sol (Sourness Intensity) Ave", "setting": "[2]", "value": 0.0}, {"measurement": "UI (Umami Intensity) Ave", "setting": "[2]", "value": 4.7}]}, {"molecule": "C=C1C[C@@]23CC[C@H]4[C@@](C)(CCC[C@@]4(C)C(=O)O[C@@H]4O[C@H](CO)[C@@H](O)[C@H](O)[C@H]4O)[C@@H]2CC[C@]1(O[C@@H]1O[C@H](CO)[C@@H](O)[C@H](O[C@@H]2O[C@H](CO)[C@@H](O)[C@H](O)[C@H]2O)[C@H]1O[C@@H]1O[C@H](CO)[C@@H](O)[C@H](O)[C@H]1O)C3", "note": "[Rebaudioside A]", "values": [{"measurement": "SL (Sweetness Linger)", "setting": "[4]", "value": 5}, {"measurement": "sweetness potency, times more potent than sucrose", "setting": "[1]", "value": "350-450 times"}]}, {"molecule": "C=C1C[C@@]23CC[C@H]4[C@@](C)(CCC[C@@]4(C)C(=O)O[C@@H]4O[C@H](CO)[C@@H](O)[C@H](O)[C@H]4O)[C@@H]2CC[C@]1(O[C@@H]1O[C@H](CO)[C@@H](O)[C@H](O)[C@H]1O[C@@H]1O[C@H](CO)[C@@H](O)[C@H](O)[C@H]1O)C3", "note": "[Stevioside]", "values": [{"measurement": "sweetness potency, times higher than sucrose", "setting": "[1]", "value": "110-270 times"}]}, {"molecule": "OC[C@H]1O[C@@](CO)(O[C@H]2O[C@H](CO)[C@@H](O)[C@H](O)[C@H]2O)[C@@H](O)[C@@H]1O", "note": "[Sucrose]", "values": [{"measurement": "SL (Sweetness Linger)", "setting": "[4]", "value": 0}, {"measurement": "C/R Function", "setting": "[5]", "value": "R = C"}]}, {"molecule": "C[C@H](CC[C@@H](O[C@@H]1O[C@H](CO[C@@H]2O[C@H](CO)[C@@H](O)[C@H](O)[C@H]2O)[C@@H](O)[C@H](O)[C@H]1O[C@@H]1O[C@H](CO)[C@@H](O)[C@H](O)[C@H]1O)C(C)(C)O)[C@H]1CC[C@@]2(C)[C@@H]3CC=C4[C@@H](CC[C@H](O[C@@H]5O[C@H](CO[C@@H]6O[C@H](CO)[C@@H](O)[C@H](O)[C@H]6O)[C@@H](O)[C@H](O)[C@H]5O)C4(C)C)[C@]3(C)[C@H](O)C[C@]12C", "note": "[mogroside V]", "values": [{"measurement": "sweetness, times cane sugar", "setting": "[1]; relative to cane sugar on a weight basis, estimated", "value": "approximately 250 times"}]}, {"molecule": "Rebaudioside B [REBB]", "values": [{"measurement": "sweetness potency, times more potent than sucrose", "setting": "[1]", "value": "300-350 times"}, {"measurement": "water solubility", "setting": "[6]", "value": "about 0.1%"}]}, {"molecule": "Rebaudioside C", "values": [{"measurement": "sweetness potency, times higher than sucrose", "setting": "[1]", "value": "40-60 times"}]}]}
